Assay results: PubChem BioAssay AID720512 (Broad Institute, 2013)
Calls of active or inactive are those of the source. No rule for the calls is given here.

These compounds were tested against Toxin B (TcdB) glycohydrolase, Clostridioides difficile 630 (assay: TcdB glycohydrolase inhibitors, dose response, biochemical, cherry-pick, plate reader (AID 720512)). Details: recombinant TcdB glycohydrolase activity.

SMILES | AC50
Oc1ccc(-c2cn3ccccc3n2)cc1 | 12.1 µM
CC(=O)N1CC[C@@H]2[C@@H](CO)N(C)c3ccc(-c4ccccc4)cc3[C@@H]21 | > 42 µM (inactive)
CCNC(=O)C[C@H]1CC[C@@H]2[C@@H](COc3ccc(NC(=O)c4cccc(OC)c4)cc3C(=O)N2C)O1 | > 39 µM (inactive)
CCOc1ccccc1/C=C/c1onc(C)c1S(=O)(=O)N1CCC(C(=O)NC)CC1 | > 39 µM (inactive)
COc1ccc(C2(CNC(=O)c3ccc(OC)c([N+](=O)[O-])c3)CCCCC2)cc1OC | > 39 µM (inactive)
O=C(Nc1ccc(N2CCOCC2)c(Cl)c1)c1ccc(Cl)cc1 | > 39 µM (inactive)
CCNC(=O)C[C@H]1CC[C@@H]2[C@@H](COc3ccc(NC(=O)c4ccc5c(c4)OCO5)cc3C(=O)N2C)O1 | > 39 µM (inactive)
CCNC(=O)C[C@H]1CC[C@@H]2[C@H](COc3ccc(NC(=O)c4ccc5c(c4)OCO5)cc3C(=O)N2C)O1 | > 42 µM (inactive)
CCn1c(=S)[nH]c2c(=O)n(C)c(=O)n(C)c21 | 10.8 µM
CCOc1ccccc1-n1c(=S)sc2c(=O)n(-c3ccc(F)cc3)c(SCC(=O)O)nc21 | > 39 µM (inactive)
O=C(O)c1ccc(-c2ccc(O)c(F)c2)cc1 | > 39 µM (inactive)
Oc1ccc2ccc3[nH]cnc3c2c1 | > 39 µM (inactive)
N=C(N)c1ccc(N=Nc2c(O)ccc3c2[nH]c2ccccc23)cc1 | > 39 µM (inactive)

Same assay, conditions: recombinant TcdB glycohydrolase activity, at 3.5 µM (top of the series)

SMILES | activity change, negative = inhibition
CO[C@@H]1CN(C)C(=O)c2cc(NC(=O)NC(C)C)ccc2OC[C@@H](C)N(S(C)(=O)=O)C[C@H]1C | inactive

Same assay, conditions: recombinant TcdB glycohydrolase activity, at 19.5 µM (top of the series)

SMILES | activity change, negative = inhibition
O=C(C[C@@H]1C[C@H]2c3cc(NC(=O)Nc4ccccc4)ccc3O[C@H]2[C@H](CO)O1)NCc1ccccc1 | inactive
Cc1c(CCCC(=O)O)sc(N)c1C(=O)c1cccc(C(F)(F)F)c1 | inactive
CC(C)(C)OCC(O)CN1CCN(C(=O)c2ccccc2)CC1 (stereo unspecified) | inactive
Cc1cc(/C=C(\C#N)C(=O)N2CCCCC2)cc(C)c1O | inactive
C=CCNS(=O)(=O)c1nc(C)c(Cl)c(C)c1C#N | inactive
CC1=C(C(=O)OCC2CCCO2)C(c2coc3ccccc3c2=O)C2=C(CCCC2=O)N1 (stereo unspecified) | inactive
Cn1c(SCc2nnc(-c3ccccc3)o2)nc2ccccc21 | inactive
Cc1[nH]c(-c2ccc(F)cc2)cc1C(=O)N1CCN(c2ccccc2)CC1 | inactive
Fc1ccccc1Nc1n[nH]c(=S)s1 | inactive
Nn1c(SCc2ccccc2F)nnc1-c1ccccn1 | inactive
Cc1cc(C)nc(NC(N)=NCCc2ccccc2)n1 | inactive
O=C(CSc1cccc2cccnc12)N/N=C/c1ccc(O)cc1 | inactive
COc1ccccc1/C=C/c1onc(C)c1S(=O)(=O)N1CCC(C(=O)NC(C)C)CC1 | inactive
CSc1nc(Cl)cc(Nc2ccc(O)cc2)n1 | inactive
O=C(Nc1ccccc1F)N(Cc1ccc(F)cc1)Cc1nc2ccccc2c(=O)[nH]1 | inactive
C[C@H](CO)N1C[C@H](C)[C@@H](CN(C)CC2CCCCC2)Oc2ccc(NC(=O)CCN3CCOCC3)cc2C1=O | inactive
CC(=O)Nc1ccc(Oc2nc(-c3ccccn3)nc3ccccc23)cc1 | inactive
Cc1csc(N=Nc2ccc(N(C)C)cc2)[n+]1[O-] | inactive
CC(=O)C1=CCC(c2ccccc2)N(S(=O)(=O)c2ccc(C)cc2)C1 (stereo unspecified) | inactive
CC(=O)c1ccc(NC(=O)CNCC(c2ccccc2)N(C)C)cc1 (stereo unspecified) | inactive
Cc1ccc(-c2nc3ccc([N+](=O)[O-])cc3[nH]2)cc1 | inactive
CC(=O)C1=CCC(c2ccc(C)cc2)N(S(=O)(=O)c2ccc(C)cc2)C1 (stereo unspecified) | inactive
CC(C)CC(=O)N1CCN(Cc2ccc(Br)cc2)CC1 | inactive

SMILES | activity change, negative = inhibition
CNC(=O)C1CCN(S(=O)(=O)c2c(C)noc2/C=C/c2ccc(OC)cc2)CC1 | inactive
O=C(O)c1ccc(-c2nnc(-c3ccccc3)o2)cc1 | inactive
COc1ccc(C2=NS(=O)(=O)N(C)C(C(=O)NCc3ccc(F)cc3)=C2)cc1OC | inactive
O=C(Nc1ccc2c(c1)OCCO2)c1cc2ccccc2o1 | inactive
CN(C)c1ccc(/C=C/c2cccc[n+]2[O-])cc1 | inactive
COc1cc(/C=N/NC(=O)C2COc3ccccc3O2)ccc1O (stereo unspecified) | inactive
COc1ccc2nccc(/C=C/c3ccnc4ccc(OC)cc34)c2c1 | inactive
Fc1ccc(-c2nc3ccc(Br)cn3c2Cc2ccccc2)cc1 | inactive
Cc1ccc(C(=O)Nc2ccc(O)cc2C(=O)O)cc1C | inactive
Cc1cc(N2CCCC2=O)cc(C)c1S(=O)(=O)Nc1c(C)nn(C)c1C | inactive
COc1ccc(CCNC(=O)CCCn2nc(C)n3ccnc3c2=O)cc1OC | inactive
CC(=O)c1cccc(OCC(=O)c2cc(C)n(-c3cc(C)on3)c2C)c1 | inactive
COc1ccc(CNC(=O)C2=CC(c3ccc(OC)cc3)=NS(=O)(=O)N2C)cc1 | inactive
O=[N+]([O-])c1c(Nc2ccccc2O)ccc2nonc12 | inactive
COc1ccccc1Oc1cn[nH]c1-c1ccc(O)cc1O | inactive
O=c1c2ccccc2oc2ccc(NCCCN3CCOCC3)cc12 | inactive
COc1cc(C=NNC(=O)c2ccccc2-n2cccc2)ccc1O | inactive
CS(=O)(=O)N(CC(=O)Nc1ccc(S(=O)(=O)N2CCOCC2)cc1)c1ccccc1Br | inactive
COc1ccc(OC)c2sc(NNC(=O)C3COc4ccccc4O3)nc12 (stereo unspecified) | inactive
O=C(C1CCOCC1)N1CC[C@@H]2[C@@H](CO)Nc3ccc(-c4ccc(F)cc4)cc3[C@@H]21 | inactive
Cc1ccc(NC(=O)OC(C)N2CCCCC2)cc1NC(=O)OC(C)N1CCCCC1 (stereo unspecified) | inactive
COc1ccc(C2=NS(=O)(=O)N(C)C(C(=O)NCc3ccc4c(c3)OCO4)=C2)cc1 | inactive
Cc1cc2c(cc1S(=O)(=O)N(C)c1ccccc1)NC(=O)CO2 | inactive

SMILES | activity change, negative = inhibition
CC(C)c1cc(CN2CCN(Cc3ccc(F)c(F)c3)C(CCO)C2)[nH]n1 (stereo unspecified) | inactive
O=C(CN1C(=O)CCC1=O)NNc1ccc2ccccc2c1 | inactive
CCOc1cc(/C=N/O)ccc1OCc1ccc(C)cc1 | inactive
Cc1nc(S(=O)(=O)N(C)Cc2ccccc2)c(C#N)c(C)c1Cl | inactive
CC(/C=N/n1c(-c2ccncc2)n[nH]c1=S)=C\c1ccco1 | inactive
COc1ccc(CNC(=O)c2cc3c(s2)CN(Cc2ccccc2)C3)cc1 | inactive
Cc1ccc(/C=C/c2onc(C)c2S(=O)(=O)N2CCC(C(=O)NC(C)(C)C)CC2)cc1 | inactive
Cc1cccc(CN2CCN(c3ncccn3)CC2)c1 | inactive
CNC(=O)C1CCN(S(=O)(=O)c2c(C)noc2/C=C/c2ccccc2F)CC1 | inactive
COc1cccc(Oc2ccc3nnc(C(F)(F)F)n3n2)c1 | inactive
COc1ccc(/C=C/c2onc(C)c2S(=O)(=O)N2CCC(C(=O)N3CCCCCC3)CC2)cc1 | inactive
C=CCNc1n[nH]c(=S)s1 | inactive
Cc1ccc(C)c(CN2C(=O)COc3ccc(C(=O)c4ccccc4C(=O)O)cc32)c1 | inactive
CCOC(=O)c1sc2nc(OCCN3CCOCC3)cc(C)c2c1N | inactive
O=C1/C(=C/c2cccnc2)SC(=NCc2ccccc2)N1Cc1ccccc1 | inactive
CN(C)c1ccc(C(=S)N2CCN(C(=S)Nc3ccc(Cl)cc3)CC2)cc1 | inactive
O=C(N/N=C/c1ccc(O)c(O)c1)C1CC1 | inactive
COC(=O)[C@@]12CCCCN1[C@H](c1ccc(-c3ccccc3)c(OC)c1)[C@H]1C(=O)N(C)C(=O)[C@H]12 | inactive
COc1cccc(-n2c(SCC(=O)N3CCOCC3)nnc2-c2c[nH]c3ccccc23)c1 | inactive
CC[C@H](C)[C@@H]1NC(=O)c2cc([N+](=O)[O-])cc(I)c2NCC[C@@H](C(N)=O)NC(=O)[C@H](CCCN=C(N)N)NC1=O | inactive
Cc1ccc(S(=O)(=O)N2CCOCC2)cc1C(=O)NCCCN1CCCC1=O | inactive
